Laboratory results as given in PMC8366290, “Efficacy of a Novel Bi-Steric mTORC1 Inhibitor in Models of B-Cell Acute Lymphoblastic Leukemia” (Frontiers in Oncology, 2021).

Biological target: T1, mTOR (mTORC1) (Homo sapiens, UniProt P42345)
T1 construct: with raptor (mTORC1 complex)
Test: MSD electrochemiluminescent assay of p4E-BP1 T37/T46 in SUP-B15 cells, with immunoblot
Type: cell-based

EC50: 2 nM
Structure (SMILES): CO[C@H]1C[C@@H]2CC[C@@H](C)[C@@](O)(O2)C(=O)C(=O)N2CCCC[C@H]2C(=O)O[C@H]([C@H](C)C[C@@H]2CC[C@@H](OCCCCc3cn(CCOCCOCCOCCOCCOCCOCCOCCOCCC(=O)NCCCCn4nc(-c5cc6cc(O)ccc6[nH]5)c5c(N)ncnc54)nn3)[C@H](OC)C2)CC(=O)[C@H](C)/C=C(\C)[C@@H](O)[C@@H](OC)C(=O)[C@H](C)C[C@H](C)/C=C/C=C/C=C/1C [RMC-4627]
